From patent publication US12090220B2, “Efficient sunscreen compositions with diethylamino hydroxybenzoyl hexyl benzoate, butyl methoxydibenzoylmethane and organic particulate UV filter” (BASF SE, priority 2019, dated 2024)
Structures can show the parent of a compound that is named as a salt.

Test: Measurement of interfacial tension (polarity index) of emollients
Format: physicochemical
Details: interfacial tension emollient/water, Tensimat Densimat TD2000
Source text: The term “polarity index” refers to non-polar or polar oils. Non-polar oils are mainly based on hydrocarbons and lack an electronegative element, such as oxygen. In contrast, polar oils contain heteroatoms that differ in electronegativity, which results in a dipole moment. However, such oils are still insoluble in water, i.e. hydrophob. The polarity index can be determined by measuring the interfacial tension between the respective oil and water.
Interfacial tension of the respective emollients as listed below was measured using a Tensimat Densimat TD2000.
Work on `CCCCOC(=O)CCCCC(=O)OCCCC` [dibutyl adipate] yielded a polarity index of 14 mN/m.
With `CC(C)OC(=O)CCCCC(=O)OC(C)C` [diisopropyl adipate] the polarity index was 12 mN/m.
For `CC(C)OC(=O)CCCCCCCCC(=O)OC(C)C` [diisopropyl sebacate], the polarity index was 19 mN/m.
With `CCCCCCCCCCC(CO)CCCCCCCC` (centres unmarked) [octyldodecanol] the polarity index was 25 mN/m.
Molecule `O=C(OCCc1ccccc1)c1ccccc1` [phenethyl benzoate] has a polarity index of 19 mN/m.
`CCCCOC(=O)CC(O)(CC(=O)OCCCC)C(=O)OCCCC` [tributyl citrate] gave a polarity index of 10 mN/m.
In the case of `CCOC(=O)CC(O)(CC(=O)OCC)C(=O)OCC` [triethyl citrate], the polarity index is reported as 7 mN/m.

Test: not given
Details: general description of the UV filter; cited from earlier work
For `COc1ccc(C(=O)CC(=O)c2ccc(C(C)(C)C)cc2)cc1` [BMDBM, 1-(4-(1,1-dimethylethyl)phenyl)-3-(4-methoxyphenyl)propane-1,3-dione], the absorption maximum is given as 357 nm.
In the case of `CCCCCCOC(=O)c1ccccc1C(=O)c1ccc(N(CC)CC)cc1O` [DHHB, hexyl 2-[4-(diethylamino)-2-hydroxybenzoyl]benzoate], the absorption maximum is listed as 354 nm.
In the case of `CCCCC(CC)COC(=O)/C=C/c1ccc(OC)cc1` (centres unmarked) [ethylhexyl methoxy cinnamate, 2-Ethylhexyl-(2E)-3-(4-methoxyphenyl)acrylate], the absorption maximum is listed as 310 nm.
For `c1ccc(-c2ccc(-c3nc(-c4ccc(-c5ccccc5)cc4)nc(-c4ccc(-c5ccccc5)cc4)n3)cc2)cc1` [tris-biphenyl triazine, 2,4,6-Tris(biphenyl-4-yl)-1,3,5-triazine], the absorption maximum is given as 310 nm.
